Results on 17 molecules are retold here after US10472356B2, “Bicyclic ketone sulfonamide compounds” (AMGEN INC., priority 2015, dated 2019).

What all share (format): cell-based
Experiment [1] concerns the target T1, human Nav1.7 (Homo sapiens, UniProt Q15858).
T1 construct: expressed in transfected cells; host or cells: HEK293
Briefly: Nav 1.7 IWQ In Vitro Assay (IonWorks Quattro). The settings on record: HEK293 cells stably transfected with human Nav 1.7; IonWorks Quattro population patch-clamp; 26th pulse to −20 mV, 5 Hz; cells unclamped 5 to 8 minutes with compound; read-out: hNav1.7 IWQ IC50. As for the experimental part: Nav 1.7 or Nav 1.5 IWQ In Vitro Assay
HEK293 cells stably transfected with either human Nav 1.7 or human Nav 1.5 were recorded in population patch-clamp mode with the IonWorks® Quattro automated electrophysiology system (Molecular Devices, LLC, Sunnyvale, Calif.). Cells were voltage clamped to −110 mV for three seconds (Nav 1.7) or half a second (Nav 1.5) and sodium currents were elicited by a train of 26 depolarizations of 150 msec duration to −20 mV (Nav 1.7) or 0 mV (Nav 1.5) at a frequency of 5 Hz. Cells were then left unclamped for a period of 5 to 8 minutes while a single concentration of test compound was added. Following this compound incubation period, cells were then reclamped to −110 mV for three seconds (Nav1.7) or half a second (Nav1.5) to recover unbound channels and put through the same 26 pulse voltage protocol as above. Peak inward current during the 26th pulse to −20 mV (Nav 1.7) or 0 mV (Nav 1.5) in the presence of compound was divided by the peak inward current evoked by the 26th pulse to −20 mV (Nav1.7) or 0 mV (Nav1.5) in the absence of compound to determine percent inhibition. Concentration-response curves of percent.

Experiment [2] addresses T1, human Nav1.7. Briefly: Nav 1.7 IWB In Vitro Assay (IonWorks Barracuda). Conditions: HEK293 cells stably transfected with human Nav 1.7; IonWorks Barracuda population patch-clamp; cells clamped to −20 mV for 4 minutes with compound; 26th pulse; read-out: hNav1.7 IWB IC50. The procedure, abridged:
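IC50 derived from concentration-response of percent block of the 26th-pulse peak inward current, compound vs none. Protocol: stable human Nav 1.7 HEK293 cells on automated population patch clamp, held at −110 mV, 5 Hz train of 150 ms steps to −20 mV, 4 min compound exposure depolarized at −20 mV, 3 s repolarization, train repeated.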
(The patch-clamp technique gives a direct electrical read-out from membranes.)

For experiment [3], the target named is T1, human Nav1.7. Kind of experiment: Nav 1.7 In Vitro PatchXpress (PX) Assay. Conditions: HEK 293 cells stably transfected with human Nav1.7; PatchXpress whole cell voltage clamp; partially inactivated state (holding potential yielding 20 to 50% inactivation); read-out: hNav1.7 PX IC50. The procedure, abridged: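 Percent inhibition of peak sodium current taken after 3 min exposure to one compound concentration, 3–5 cells each, with IC50 curve fits. Partially inactivated channels (20–50% inactivation at holding potential) in Nav1.7-HEK 293 cells, activated by 20 ms steps to −10 mV every 10 s.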

T1 sequence (Q15858 whole entry): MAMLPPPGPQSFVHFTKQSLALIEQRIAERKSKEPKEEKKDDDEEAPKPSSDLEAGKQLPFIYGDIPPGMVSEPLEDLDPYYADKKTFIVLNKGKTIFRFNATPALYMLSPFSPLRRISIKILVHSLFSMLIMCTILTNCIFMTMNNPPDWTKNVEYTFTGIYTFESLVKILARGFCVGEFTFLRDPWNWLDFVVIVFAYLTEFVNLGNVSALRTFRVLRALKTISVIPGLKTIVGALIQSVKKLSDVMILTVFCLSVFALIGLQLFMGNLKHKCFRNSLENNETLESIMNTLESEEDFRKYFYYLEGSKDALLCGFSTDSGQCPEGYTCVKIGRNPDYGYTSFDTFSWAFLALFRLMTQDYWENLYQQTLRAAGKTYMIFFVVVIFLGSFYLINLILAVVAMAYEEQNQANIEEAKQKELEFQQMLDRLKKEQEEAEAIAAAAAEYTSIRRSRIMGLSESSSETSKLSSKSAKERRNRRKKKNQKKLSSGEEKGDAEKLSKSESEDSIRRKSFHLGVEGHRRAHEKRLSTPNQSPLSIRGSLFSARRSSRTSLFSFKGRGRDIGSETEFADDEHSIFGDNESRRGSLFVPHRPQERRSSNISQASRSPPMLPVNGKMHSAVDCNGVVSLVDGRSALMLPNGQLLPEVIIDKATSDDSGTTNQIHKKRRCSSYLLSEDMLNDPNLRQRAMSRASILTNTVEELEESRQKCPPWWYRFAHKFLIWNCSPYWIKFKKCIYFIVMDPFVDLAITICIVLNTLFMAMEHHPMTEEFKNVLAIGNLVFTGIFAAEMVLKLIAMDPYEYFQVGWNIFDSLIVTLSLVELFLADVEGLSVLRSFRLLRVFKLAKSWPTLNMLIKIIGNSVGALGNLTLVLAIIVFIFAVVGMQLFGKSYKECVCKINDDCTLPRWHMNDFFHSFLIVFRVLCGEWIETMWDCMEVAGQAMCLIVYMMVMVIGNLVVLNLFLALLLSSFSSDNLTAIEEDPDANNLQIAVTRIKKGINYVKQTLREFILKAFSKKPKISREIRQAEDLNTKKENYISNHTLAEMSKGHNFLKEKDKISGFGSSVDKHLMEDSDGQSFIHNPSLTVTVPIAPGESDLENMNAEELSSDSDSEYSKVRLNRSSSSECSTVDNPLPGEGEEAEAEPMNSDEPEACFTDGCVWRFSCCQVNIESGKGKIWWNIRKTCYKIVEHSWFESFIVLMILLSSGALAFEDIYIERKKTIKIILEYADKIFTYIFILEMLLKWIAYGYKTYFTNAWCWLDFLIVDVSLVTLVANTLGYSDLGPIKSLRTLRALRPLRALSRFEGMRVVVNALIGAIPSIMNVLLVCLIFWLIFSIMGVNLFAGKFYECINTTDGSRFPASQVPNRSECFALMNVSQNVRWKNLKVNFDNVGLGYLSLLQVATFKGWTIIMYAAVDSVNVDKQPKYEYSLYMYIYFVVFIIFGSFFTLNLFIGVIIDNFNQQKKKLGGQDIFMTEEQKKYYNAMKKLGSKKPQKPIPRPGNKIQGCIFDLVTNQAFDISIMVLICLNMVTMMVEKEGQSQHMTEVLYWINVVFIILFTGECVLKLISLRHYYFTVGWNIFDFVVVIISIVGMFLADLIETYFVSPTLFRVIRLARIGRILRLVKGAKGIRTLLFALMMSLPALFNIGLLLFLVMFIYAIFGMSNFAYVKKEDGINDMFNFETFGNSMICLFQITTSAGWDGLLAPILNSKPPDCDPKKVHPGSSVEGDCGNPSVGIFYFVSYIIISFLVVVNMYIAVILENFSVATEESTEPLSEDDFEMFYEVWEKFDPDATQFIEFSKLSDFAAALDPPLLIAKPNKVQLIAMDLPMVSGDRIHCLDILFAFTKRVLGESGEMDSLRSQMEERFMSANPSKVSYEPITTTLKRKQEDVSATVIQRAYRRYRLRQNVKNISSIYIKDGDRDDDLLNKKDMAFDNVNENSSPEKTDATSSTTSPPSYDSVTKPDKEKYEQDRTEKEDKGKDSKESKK

As to `COc1cc(-c2cccc(OC(F)F)c2)c(F)cc1-n1c2c(ccc1=O)CN(S(=O)(=O)Nc1ccon1)CC2` (racemic) [Example 19-(Rac), (Rac)-1-(3′-(difluoromethoxy)-2-fluoro-5-methoxy-4-biphenylyl)-N-3-isoxazolyl-2-oxo-1,5,7,8-tetrahydro-1,6-naphthyridine-6(2H)-sulfonamide], the IC50 (usually the point on the concentration scale where inhibition reaches its midpoint) in experiment [1] is 5.5 nM; in experiment [2], 15.6 nM; in experiment [3], 117 nM.

With `COc1cc(-c2ccc(F)c(C(F)(F)F)c2)c(F)cc1-n1c2c(ccc1=O)CN(S(=O)(=O)Nc1cccnn1)CC2` [Example 71, P-1-(2,4′-difluoro-5-methoxy-3′-(trifluoromethyl)-[1,1′-biphenyl]-4-yl)-2-oxo-N-(pyridazin-3-yl)-1,2,7,8-tetrahydro-1,6-naphthyridine-6(5H)-sulfonamide], the figures for the IC50 in experiment [1], in experiment [2] and in experiment [3] were 2.8 nM, 6.9 nM and 29.4 nM, respectively.

Turning to `COc1cc(-c2cc(F)cc(Cl)c2)ccc1-n1c2c(ccc1=O)CN(S(=O)(=O)Nc1ccon1)CC2` (single isomer, unassigned) [Example 7-P, P-1-(3′-chloro-5′-fluoro-3-methoxy-4-biphenylyl)-N-3-isoxazolyl-2-oxo-1,5,7,8-tetrahydro-1,6-naphthyridine-6(2H)-sulfonamide], the IC50 amounted to 7.8 nM in experiment [1], 14.3 nM in experiment [2] and 76.3 nM in experiment [3].

On to `COc1cc(-c2cc(F)cc(Cl)c2)c(F)cc1-n1c2c(ccc1=O)CN(S(=O)(=O)Nc1ccc(F)cn1)CC2` (racemic) [Example 12-(Rac), (Rac)-1-(3′-chloro-2,5′-difluoro-5-methoxy-4-biphenylyl)-N-(5-fluoro-2-pyridinyl)-2-oxo-1,5,7,8-tetrahydro-1,6-naphthyridine-6(2H)-sulfonamide], for which the results for the IC50 in experiment [1], in experiment [2] and in experiment [3] were 81.5 nM, 91.3 nM and 106 nM, respectively.

As to `COc1cc(OC)cc(-c2cc(OC)c(-n3c4c(ccc3=O)CN(S(=O)(=O)Nc3ccon3)CC4)cc2F)c1` [Example 90, P-1-(2-fluoro-3′,5,5′-trimethoxy-[1,1′-biphenyl]-4-yl)-N-(isoxazol-3-yl)-2-oxo-1,2,7,8-tetrahydro-1,6-naphthyridine-6(5H)-sulfonamide], the values for the IC50 in experiment [1], in experiment [2] and in experiment [3] were 3.2 nM, 36.5 nM and 164 nM, respectively.

Take `COc1cc(-c2cc(Cl)cc(OC(F)(F)F)c2)c(F)cc1-n1c2c(ccc1=O)CN(S(=O)(=O)Nc1cccnn1)CC2` [Example 77, P-1-(3′-chloro-2-fluoro-5-methoxy-5′-(trifluoromethoxy)-[1,1′-biphenyl]-4-yl)-2-oxo-N-(pyridazin-3-yl)-1,2,7,8-tetrahydro-1,6-naphthyridine-6(5H)-sulfonamide]: the IC50 worked out at 1.3 nM in experiment [1], 4.4 nM in experiment [2] and 40.5 nM in experiment [3].

For `COc1nc(-c2cc(F)cc(Cl)c2)c(F)cc1-n1c2c(ccc1=O)CN(S(=O)(=O)Nc1cccnn1)CC2` (racemic) [Example 37, (Rac)-1-(6-(3-chloro-5-fluorophenyl)-5-fluoro-2-methoxy-3-pyridinyl)-2-oxo-N-3-pyridazinyl-1,5,7,8-tetrahydro-1,6-naphthyridine-6(2H)-sulfonamide], the IC50 in experiment [1] stood at 137 nM; in experiment [2], 269 nM; in experiment [3] it was 1030 nM.

For the molecule `COc1cc(-c2ccc(Cl)c(C)c2)c(F)cc1-n1c2c(ccc1=O)CN(S(=O)(=O)Nc1cccnn1)CC2` (single isomer, unassigned) [Example 33-P, P-1-(4′-chloro-2-fluoro-5-methoxy-3′-methyl-4-biphenylyl)-2-oxo-N-3-pyridazinyl-1,5,7,8-tetrahydro-1,6-naphthyridine-6(2H)-sulfonamide], the IC50 was found to be 14.7 nM in experiment [1], 12.6 nM in experiment [2] and 21.3 nM in experiment [3].

For `COc1cc(C#CC2CCCC2)c(F)cc1-n1c2c(ccc1=O)CN(S(=O)(=O)Nc1ccon1)CC2` (single isomer, unassigned) [Example 34-P, P-1-(4-(cyclopentylethynyl)-5-fluoro-2-methoxyphenyl)-N-3-isoxazolyl-2-oxo-1,5,7,8-tetrahydro-1,6-naphthyridine-6(2H)-sulfonamide], the IC50 in experiment [1] came to 9.2 nM; in experiment [2] it was 12.2 nM; in experiment [3], 192 nM.

On to `COc1cc(-c2ccc(C)c(F)c2)c(F)cc1-n1c2c(ccc1=O)CN(S(=O)(=O)Nc1ccon1)CC2` (single isomer, unassigned) [Example 21-P, P-1-(2,3′-difluoro-5-methoxy-4′-methyl-4-biphenylyl)-N-3-isoxazolyl-2-oxo-1,5,7,8-tetrahydro-1,6-naphthyridine-6(2H)-sulfonamide], for which the results for the IC50 in experiment [1], in experiment [2] and in experiment [3] were 7.7 nM, 9.5 nM and 24.3 nM, respectively.

On to `COc1cc(-c2cccc(C(F)(F)F)c2)c(Cl)cc1-n1c2c(ccc1=O)CN(S(=O)(=O)Nc1cccnn1)CC2` (single isomer, unassigned) [Example 91-P, P-1-(2-chloro-5-methoxy-3′-(trifluoromethyl)-[1,1′-biphenyl]-4-yl)-2-oxo-N-(pyridazin-3-yl)-1,2,7,8-tetrahydro-1,6-naphthyridine-6(5H)-sulfonamide], for which the values for the IC50 in experiment [1], in experiment [2] and in experiment [3] were 3.4 nM, 3.5 nM and 16.9 nM, respectively.

For the molecule `COc1cc(-c2cc(F)cc(Cl)c2)c(F)cc1-n1c2c(ccc1=O)CN(S(=O)(=O)Nc1ccon1)CC2` (racemic) [Example 18-(Rac), (Rac)-1-(3′-chloro-2,5′-difluoro-5-methoxy-4-biphenylyl)-N-3-isoxazolyl-2-oxo-1,5,7,8-tetrahydro-1,6-naphthyridine-6(2H)-sulfonamide], the IC50 in experiment [1] came to 4.3 nM; in experiment [2], 6.9 nM; in experiment [3] it was 39.9 nM.

For the molecule `COc1cc(C#CC2CCCC2)c(F)cc1-n1c2c(ccc1=O)CN(S(=O)(=O)Nc1ccon1)CC2` (racemic) [Example 34-(Rac), (Rac)-1-(4-(cyclopentylethynyl)-5-fluoro-2-methoxyphenyl)-N-3-isoxazolyl-2-oxo-1,5,7,8-tetrahydro-1,6-naphthyridine-6(2H)-sulfonamide], the half-inhibitory concentration (IC50) in experiment [1] came out at 88.8 nM; in experiment [2], 48.5 nM; in experiment [3] it was 408 nM.

In the case of `COc1cc(-c2cc(OC)c(-n3c4c(ccc3=O)CN(S(=O)(=O)Nc3cccnn3)CC4)cc2F)ccc1Cl` (single isomer, unassigned) [Example 2-P, P-1-(4′-chloro-2-fluoro-3′,5-dimethoxy-4-biphenylyl)-2-oxo-N-3-pyridazinyl-1,5,7,8-tetrahydro-1,6-naphthyridine-6(2H)-sulfonamide], the IC50 is less than 19 nM in experiment [1], 6.6 nM in experiment [2] and 259 nM in experiment [3].

For the molecule `COc1cc(-c2cc(C(F)(F)F)cnc2OC)c(F)cc1-n1c2c(ccc1=O)CN(S(=O)(=O)Nc1ccon1)CC2` (racemic) [Example 23, (Rac)-1-(5-fluoro-2-methoxy-4-(2-methoxy-5-(trifluoromethyl)-3-pyridinyl)phenyl)-N-3-isoxazolyl-2-oxo-1,5,7,8-tetrahydro-1,6-naphthyridine-6(2H)-sulfonamide], the IC50 in experiment [1] was determined as 7 nM; in experiment [2], 6.8 nM; in experiment [3], 25.4 nM.

For `COc1cc(-c2ccc(C)c(F)c2)c(F)cc1-n1c2c(ccc1=O)CN(S(=O)(=O)Nc1ccon1)CC2` (racemic) [Example 21-(Rac), (Rac)-1-(2,3′-difluoro-5-methoxy-4′-methyl-4-biphenylyl)-N-3-isoxazolyl-2-oxo-1,5,7,8-tetrahydro-1,6-naphthyridine-6(2H)-sulfonamide], the IC50 in experiment [1] was 14.3 nM; in experiment [2], 17.8 nM; in experiment [3], 91.3 nM.

As for `COc1cc(-c2ccc(F)c(F)c2)c(F)cc1-n1c2c(ccc1=O)CN(S(=O)(=O)Nc1cccnn1)CC2` (racemic) [Example 32-(Rac), (Rac)-2-oxo-N-3-pyridazinyl-1-(2,3′,4′-trifluoro-5-methoxy-4-biphenylyl)-1,5,7,8-tetrahydro-1,6-naphthyridine-6(2H)-sulfonamide], the IC50 was 23.7 nM in experiment [1], 30.5 nM in experiment [2] and 161 nM in experiment [3].
